According to the NIST ThermoML archive (doi:10.1021/acs.jced.7b00106):
± gives the expanded uncertainty stated by the source.

Settings: Liquid, Hot wire method

FC(F)(F)/C=C/Cl [(E)-1-chloro-3,3,3-trifluoroprop-1-ene]
Settings | thermal conductivity [W/m/K]
263.11 K, 10284 kPa | 0.09779 ± 0.0036
263.11 K, 15941 kPa | 0.1 ± 0.0031
263.12 K, 275 kPa | 0.09368 ± 0.0028
263.12 K, 5037 kPa | 0.09578 ± 0.0032
263.3 K, 65213 kPa | 0.1155 ± 0.0043
263.31 K, 42853 kPa | 0.1092 ± 0.0037
263.34 K, 36413 kPa | 0.1071 ± 0.0032
263.35 K, 59142 kPa | 0.1143 ± 0.0054
263.39 K, 51112 kPa | 0.1115 ± 0.0034
263.4 K, 29224 kPa | 0.1049 ± 0.0032
263.45 K, 22281 kPa | 0.1026 ± 0.0034
263.48 K, 65190 kPa | 0.115 ± 0.0043
263.49 K, 15926 kPa | 0.1002 ± 0.0047
263.5 K, 10264 kPa | 0.0981 ± 0.0046
263.5 K, 42848 kPa | 0.1085 ± 0.0034
263.52 K, 5059 kPa | 0.09603 ± 0.0038
263.53 K, 267 kPa | 0.09392 ± 0.0032
263.53 K, 36413 kPa | 0.1068 ± 0.0034
263.54 K, 59138 kPa | 0.1137 ± 0.0039
263.58 K, 51103 kPa | 0.1112 ± 0.0038
263.59 K, 29225 kPa | 0.1044 ± 0.0032
263.64 K, 22275 kPa | 0.1022 ± 0.0039
263.7 K, 15944 kPa | 0.09988 ± 0.0034
263.71 K, 10281 kPa | 0.09774 ± 0.003
263.73 K, 5041 kPa | 0.09557 ± 0.0033
263.75 K, 278 kPa | 0.09344 ± 0.0035
263.84 K, 65191 kPa | 0.1154 ± 0.0036
263.88 K, 42851 kPa | 0.1087 ± 0.0035
263.91 K, 36412 kPa | 0.1071 ± 0.0036
263.95 K, 51092 kPa | 0.1113 ± 0.0042
263.98 K, 29226 kPa | 0.1045 ± 0.004
264.05 K, 65174 kPa | 0.1149 ± 0.0038
264.1 K, 42852 kPa | 0.1085 ± 0.0033
264.11 K, 59122 kPa | 0.1132 ± 0.0058
264.13 K, 36411 kPa | 0.1066 ± 0.0043
264.17 K, 51091 kPa | 0.1108 ± 0.0044
264.21 K, 29227 kPa | 0.1042 ± 0.0038
281.25 K, 20968 kPa | 0.09541 ± 0.022
281.29 K, 10961 kPa | 0.09337 ± 0.0087
281.3 K, 3101 kPa | 0.08933 ± 0.003
281.3 K, 6243 kPa | 0.09051 ± 0.0061
281.31 K, 203 kPa | 0.08831 ± 0.0064
281.31 K, 16036 kPa | 0.09555 ± 0.0064
281.32 K, 20959 kPa | 0.09554 ± 0.0041
281.36 K, 10962 kPa | 0.09248 ± 0.0068
281.38 K, 3093 kPa | 0.0889 ± 0.0029
281.38 K, 6225 kPa | 0.09019 ± 0.0045
281.39 K, 193 kPa | 0.08772 ± 0.0054
281.61 K, 39518 kPa | 0.1031 ± 0.0039
281.62 K, 46215 kPa | 0.1057 ± 0.0032
281.62 K, 55364 kPa | 0.1084 ± 0.0033
281.64 K, 16024 kPa | 0.09394 ± 0.0069
281.64 K, 33249 kPa | 0.1009 ± 0.0057
281.64 K, 64739 kPa | 0.1107 ± 0.0045
281.65 K, 20972 kPa | 0.09689 ± 0.0067
281.65 K, 27078 kPa | 0.0987 ± 0.0031
281.7 K, 10959 kPa | 0.09251 ± 0.0069
281.71 K, 39517 kPa | 0.103 ± 0.0041
281.71 K, 55366 kPa | 0.1082 ± 0.004
281.72 K, 6236 kPa | 0.09039 ± 0.0029
281.72 K, 46217 kPa | 0.1053 ± 0.0033
281.73 K, 3096 kPa | 0.08936 ± 0.0039
281.73 K, 33252 kPa | 0.1011 ± 0.0032
281.73 K, 64721 kPa | 0.1106 ± 0.0042
281.74 K, 201 kPa | 0.08787 ± 0.0061
281.75 K, 16022 kPa | 0.09421 ± 0.0077
281.75 K, 20962 kPa | 0.09616 ± 0.0055
281.75 K, 27071 kPa | 0.09865 ± 0.0038
281.8 K, 10956 kPa | 0.0923 ± 0.0029
281.83 K, 6219 kPa | 0.09017 ± 0.0027
281.85 K, 185 kPa | 0.08733 ± 0.0031
281.85 K, 3101 kPa | 0.08903 ± 0.0037
